Patent US20250109444A1, “DNA HYPOMETHYLATION AS A PREDICTIVE MARKER FOR CANCER THERAPY” (Fred Hutchison Cancer Center, priority 2023, published 2025)

Key:
Assay type in all cases: cell-based
MALME3 cells = test: Co-treatment with EED inhibitor and ipatasertib
From the text: (§1) FIGS. 5A-5C. […] Increased dependency on PRC2-mediated chromatin repression is observed with AKT inhibition, creating a therapeutic vulnerability. Co-treatment with AKTi and PRC2 inhibitors (such as EZH2 or EED inhibitors) results in synergistic effects.

[1] = test system: DHMC and non-DHMC cell lines; test: Cell viability of DHMC and non-DHMC cancer cell lines treated with AKT inhibitors; details: DHMC vs non-DHMC cell lines, wide spectrum of cancer cell lines, in vitro
From the text: FIGS. 2A, 2B. […] (2A) Cell viability curves for DHMC (black) and non-DHMC (light gray) cell lines treated with 3 different AKT inhibitors (afuresertib, AZD5363, ipatasertib). (2B) IC50s for DHMCs (black) and non-DHMCs (gray).

LNCaP cells [2] = test: Co-treatment with EZH2 inhibitor and ipatasertib, cell viability; details: co-treatment with AKT inhibitor ipatasertib
From the text: as §1

[3] = Sensitization to AKT inhibitors by pharmacologically induced DNA hypomethylation (DNMT inhibitors); details: pharmacologically induced DNA hypomethylation with DNMT inhibitor
From the text: (§2) FIGS. 4A, 4B. Modulation of global DNA methylation changes the sensitivity to AKT inhibitors. (4A) Cell viability curves for solvent (circle) and SAMe (square) treated LNCaP cells. The difference in cell viability in response to AKTi (ipatasertib) treatment is shown. (4B) Decitabine (DAC) and GSK344862 results in sensitization.

LNCaP cells [4] = test: Cell viability of solvent vs SAMe treated LNCaP cells in response to AKTi (ipatasertib); details: prolonged treatment with methyl donor SAMe vs solvent
From the text: as §2

[5] = test system: DHMC and non-DHMC cell lines; test: Cell viability of DHMC and non-DHMC cancer cell lines treated with histone evicting anthracyclines; details: DHMC vs non-DHMC cell lines, wide spectrum of cancer cell lines

CN(C)[C@H]1CN(C2CCc3cccc(F)c32)C[C@@H]1c1ccc(N2CCN(S(C)(=O)=O)CC2)cc1 (stereo partly drawn) [A395]
Interaction with ipatasertib (MALME3 cells): Synergistic interaction

NC1(C(=O)N[C@@H](CCO)c2ccc(Cl)cc2)CCN(c2nc[nH]c3nccc2-3)CC1 [AZD5363, Capivasertib]
Sensitivity of DHMC compared to non-DHMC (cell viability curves, IC50s) [1]: increased sensitivity

CC[C@H](C)n1cc(C)c2c(C(=O)NCc3c(C)cc(C)[nH]c3=O)cc(-c3ccc(N4CCNCC4)nc3)cc21 [GSK126]
Interaction with ipatasertib (cell viability) (LNCaP cells [2]): synergistic reduction in cell viability

CCc1c(C#N)c(SC(C(N)=O)c2ccccc2)nc(N(C)C)c1C#N (stereo not drawn) [GSK-3484862]
Change of sensitivity to AKT inhibitors (AKTi) [3]: increases sensitivity to AKT inhibitors

C[S+](CC[C@H](N)C(=O)O)C[C@H]1O[C@@H](n2cnc3c(N)ncnc32)[C@H](O)[C@@H]1O (stereo partly drawn) [SAMe, S-Adenosylmethionine]
Change of sensitivity to AKTi (cell viability) (LNCaP cells [4]): decreases sensitivity to AKTi

CC[C@@]1(O)C[C@H](O[C@H]2C[C@H](N(C)C)[C@H](O[C@H]3C[C@H](O)[C@H](O[C@H]4CCC(=O)[C@H](C)O4)[C@H](C)O3)[C@H](C)O2)c2c(cc3c(c2O)C(=O)c2c(O)cccc2C3=O)[C@H]1C(=O)OC [aclarubicin]
Sensitivity of DHMC compared to non-DHMC (cell viability curves, IC50s) [5]: increased sensitivity

Cn1ncc(Cl)c1-c1cc(C(=O)N[C@H](CN)Cc2cccc(F)c2)sc1Cl [afuresertib, Afuresertib]
Sensitivity of DHMC compared to non-DHMC (cell viability curves, IC50s) [1]: increased sensitivity

CC(C)NC[C@@H](C(=O)N1CCN(c2ncnc3c2[C@H](C)C[C@H]3O)CC1)c1ccc(Cl)cc1 [ipatasertib, Ipatasertib]
Sensitivity of DHMC compared to non-DHMC (cell viability curves, IC50s) [1]: increased sensitivity

dimethyl-doxorubicin
Sensitivity of DHMC compared to non-DHMC (cell viability curves, IC50s) [5]: increased sensitivity
